Data on 13 compounds can be found in PubChem BioAssay (NCI).

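Interpolation was linear, between the two tested concentrations surrounding the appropriate level; five concentrations were tested over 48 hours in 96-well plates. TGI marks complete inhibition of growth.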 A value given as a limit tells only on which side of the number the result lay.

Some test systems named below: UACC-257 melanoma; ACHN renal; COLO 205 colon; IGROV1 ovarian; RXF 393 renal; HCC-2998 colon; BT-549 breast; SF-268 CNS; CAKI-1 renal; NCI-H460 lung; SNB-75 CNS.
Common to all, as to test: DTP human tumour cell line panel, 48 h

As to `COCOc1cc(OC)ccc1C=O`, the TGI is over 100 µM with UACC-257 melanoma; over 100 µM in the test on ACHN renal; 54.2 µM with COLO 205 colon; over 100 µM with IGROV1 ovarian; 39.1 µM in the test with RXF 393 renal; 71.5 µM with HCC-2998 colon. For the same compound, the concentration for total growth inhibition (TGI) in the test with BT-549 breast, with SF-268 CNS, in the test on CAKI-1 renal, in the test on NCI-H460 lung and in the test on SNB-75 CNS was over 100 µM each time.
As to `CC(C)(C)NNc1c([N+](=O)[O-])cnn(-c2ccccc2)c1=O`, the TGI was 11.4 µM with UACC-257 melanoma; 16.4 µM in the test on ACHN renal; 12.6 µM in the test on COLO 205 colon; 38.6 µM in the test with IGROV1 ovarian; 18.1 µM in the test with RXF 393 renal; 11.8 µM in the test on HCC-2998 colon. The total growth inhibition concentration (TGI) came to 2.7 µM in the test on BT-549 breast; 31 µM in the test with SF-268 CNS; 21.1 µM in the test with CAKI-1 renal; 26.3 µM with NCI-H460 lung; 23.8 µM in the test with SNB-75 CNS.
On to `CC1OC(OC2C(CO)OC(O[C@H]3CC[C@@]4(C)C(=CC[C@H]5[C@@H]6C[C@@H]7O[C@](O)(CC[C@@H](C)COC8OC(CO)C(O)C(O)C8O)[C@@H](C)[C@@H]7[C@@]6(C)CC[C@@H]54)C3)C(OC3OC(C)C(O)C(O)C3O)C2O)C(O)C(O)C1O` (stereo partly specified), for which the concentration for total growth inhibition (TGI) worked out at 14.5 µM in the test on UACC-257 melanoma; 12.2 µM in the test with ACHN renal; 6.81 µM in the test with COLO 205 colon; 5.38 µM with RXF 393 renal; 7.28 µM in the test with HCC-2998 colon; 11.1 µM in the test with BT-549 breast. Also, the total growth inhibition concentration (TGI) in the test with SF-268 CNS stood at 8.33 µM; in the test on CAKI-1 renal, 8.61 µM; with NCI-H460 lung, 4.57 µM; with SNB-75 CNS it was 3.26 µM.
`O=[N+]([O-])c1ccccc1S(=O)(=O)N1CCCc2cc(Cl)ccc21`: the TGI is over 96.1 µM with UACC-257 melanoma; over 100 µM in the test with ACHN renal; over 100 µM in the test with COLO 205 colon; over 100 µM with IGROV1 ovarian; 74.1 µM in the test on RXF 393 renal; over 100 µM in the test on HCC-2998 colon. Also, the TGI with BT-549 breast, with SF-268 CNS, with CAKI-1 renal, in the test with NCI-H460 lung and in the test with SNB-75 CNS was over 100 µM in each case.
As for `COC(=O)CCCc1ccc2c(c1)CCC2`, the total growth inhibition concentration (TGI) in the test with UACC-257 melanoma, in the test on ACHN renal, in the test on COLO 205 colon, in the test with IGROV1 ovarian, in the test with HCC-2998 colon and with BT-549 breast was over 100 µM in each case. The total growth inhibition concentration (TGI) with SF-268 CNS, in the test with CAKI-1 renal, in the test with NCI-H460 lung and in the test on SNB-75 CNS was over 100 µM in each case.
For `Cc1nn(-c2ccccc2)c(C)c1/C=N/NC(=O)c1sc(=S)n(-c2ccc(Cl)cc2)c1N`, the TGI in the test on UACC-257 melanoma was over 100 µM; with ACHN renal, over 100 µM; in the test on COLO 205 colon, 38.9 µM; in the test with IGROV1 ovarian it was 4.26 µM; with RXF 393 renal, 6 µM; in the test with HCC-2998 colon, 88.4 µM. In addition, the TGI is over 100 µM with BT-549 breast; over 100 µM in the test on SF-268 CNS; 9.68 µM in the test with CAKI-1 renal; 95.1 µM with NCI-H460 lung; 5.49 µM with SNB-75 CNS.
`COc1ccccc1NC(=S)N/N=C(/c1ccccc1)c1ccccn1`: the concentration for total growth inhibition (TGI) in the test with UACC-257 melanoma is 1.13 µM; with ACHN renal, 11.8 µM; with COLO 205 colon, 0.59 µM; in the test on IGROV1 ovarian it was 17.6 µM; with RXF 393 renal it was 13.9 µM; in the test on HCC-2998 colon, 29.1 µM. Further, the TGI in the test on BT-549 breast came to 23 µM; in the test on SF-268 CNS, 20.4 µM; with CAKI-1 renal it was 10.2 µM; in the test on NCI-H460 lung, 13.3 µM; with SNB-75 CNS, 24.7 µM.
As to `CC(C)(C)[Si](C)(C)OCC1OC(n2ccc(=O)[nH]c2=O)C(O[Si](C)(C)C(C)(C)C)/C1=N/O` (stereo unspecified), the total growth inhibition concentration (TGI) in the test with UACC-257 melanoma is 16.7 µM; in the test with ACHN renal it was 12.1 µM; with COLO 205 colon it was 5.69 µM; in the test on IGROV1 ovarian it was 15.6 µM; in the test with RXF 393 renal it was 23.3 µM; in the test on HCC-2998 colon, 14.8 µM. For the same compound, the total growth inhibition concentration (TGI) in the test on BT-549 breast was over 40.5 µM; in the test with CAKI-1 renal, 37.9 µM; with NCI-H460 lung it was 12.5 µM; with SNB-75 CNS, 46.1 µM.
Consider `CCC(C#N)N(Cc1cccc(CN(C(C)=O)C(C#N)CC)c1)C(C)=O` (stereo unspecified), for which the concentration for total growth inhibition (TGI) in the test on UACC-257 melanoma, in the test on ACHN renal, with COLO 205 colon, with IGROV1 ovarian, with RXF 393 renal and in the test with HCC-2998 colon was over 100 µM in each case. For the same compound, the total growth inhibition concentration (TGI) in the test on BT-549 breast, with SF-268 CNS, with CAKI-1 renal and with SNB-75 CNS was over 100 µM each time.
In the case of `S=C1c2cc(Cl)ccc2NC(=NC2CCCC2)C2CSCN12` (stereo unspecified), the TGI with UACC-257 melanoma, in the test on ACHN renal, in the test with COLO 205 colon, in the test with IGROV1 ovarian, in the test with RXF 393 renal and in the test with HCC-2998 colon was over 100 µM throughout. Besides, the TGI with BT-549 breast, in the test on SF-268 CNS, with CAKI-1 renal, with NCI-H460 lung and in the test with SNB-75 CNS was over 100 µM throughout.
Take `CC(C)(C)[C@@H]1NC(=O)CN1C(=O)OCc1ccccc1`: the TGI in the test on UACC-257 melanoma, with ACHN renal, in the test on COLO 205 colon, in the test on IGROV1 ovarian, with RXF 393 renal and in the test on HCC-2998 colon was over 100 µM each time. Further, the TGI in the test with BT-549 breast, in the test with SF-268 CNS, in the test with NCI-H460 lung and with SNB-75 CNS was over 100 µM in each case.
Turning to `Cn1c2ccccc2n2c(=O)c(-c3ccc(O)cc3)nnc12`, the TGI with UACC-257 melanoma, with ACHN renal, in the test with COLO 205 colon, with IGROV1 ovarian, with HCC-2998 colon and with BT-549 breast was over 100 µM in each case. Moreover, the total growth inhibition concentration (TGI) in the test on SF-268 CNS is over 100 µM; in the test with CAKI-1 renal, over 100 µM; with NCI-H460 lung, over 100 µM; in the test on SNB-75 CNS it was 75 µM.
Regarding `COC(=O)CP1(=O)OC2C(C3CCC2(C)C3(C)C)N1c1cc(C(F)(F)F)cc(C(F)(F)F)c1` (stereo unspecified), the TGI was over 100 µM in the test with UACC-257 melanoma; over 100 µM with ACHN renal; 49.1 µM with COLO 205 colon; over 100 µM in the test on IGROV1 ovarian; 55.2 µM in the test on HCC-2998 colon; 71.8 µM in the test with BT-549 breast. Moreover, the TGI worked out at 82.1 µM with SF-268 CNS, 83.1 µM in the test on CAKI-1 renal, 86.2 µM with NCI-H460 lung and 51.9 µM with SNB-75 CNS.
